Test results published in ChEMBL document CHEMBL5505970 (J Med Chem, 2024).
Activity calls are given as the source filed them. No cut-off for these calls is given here.

Experiments:
[1] = Clearance in rat liver microsomes at 1 uM in presence of NADPH by ESI/LC-MS/MS analysis; type: ADME, Microsome; details: read-out: CLH
[2] = Clearance in rat hepatocytes at 1 uM measured per million cells by ESI/LC-MS/MS analysis; type: ADME, cell-based, Hepatocyte; details: read-out: CLH
[3] = biological target: Serine/threonine-protein kinase mTOR (Homo sapiens, UniProt P42345); experiment: Inhibition of mTOR in human Jurkat cell lysates at 0.03 to 0.3 uM in presence of biotinylated ADP by KiNativ profiling based mass spectrometry; type: subcellular; details: dose 0.03-0.3 µM
[4] = biological target: Serine/threonine-protein kinase ATR (Homo sapiens, UniProt Q13535); experiment: Inhibition of ATR in gemcitabine-stimulated human LoVo cells assessed as decrease in CHK1 phosphorylation at Ser345 residue; type: cell-based; details: lovo
Serine/threonine-protein kinase ATR, sequence (Q13535 whole entry): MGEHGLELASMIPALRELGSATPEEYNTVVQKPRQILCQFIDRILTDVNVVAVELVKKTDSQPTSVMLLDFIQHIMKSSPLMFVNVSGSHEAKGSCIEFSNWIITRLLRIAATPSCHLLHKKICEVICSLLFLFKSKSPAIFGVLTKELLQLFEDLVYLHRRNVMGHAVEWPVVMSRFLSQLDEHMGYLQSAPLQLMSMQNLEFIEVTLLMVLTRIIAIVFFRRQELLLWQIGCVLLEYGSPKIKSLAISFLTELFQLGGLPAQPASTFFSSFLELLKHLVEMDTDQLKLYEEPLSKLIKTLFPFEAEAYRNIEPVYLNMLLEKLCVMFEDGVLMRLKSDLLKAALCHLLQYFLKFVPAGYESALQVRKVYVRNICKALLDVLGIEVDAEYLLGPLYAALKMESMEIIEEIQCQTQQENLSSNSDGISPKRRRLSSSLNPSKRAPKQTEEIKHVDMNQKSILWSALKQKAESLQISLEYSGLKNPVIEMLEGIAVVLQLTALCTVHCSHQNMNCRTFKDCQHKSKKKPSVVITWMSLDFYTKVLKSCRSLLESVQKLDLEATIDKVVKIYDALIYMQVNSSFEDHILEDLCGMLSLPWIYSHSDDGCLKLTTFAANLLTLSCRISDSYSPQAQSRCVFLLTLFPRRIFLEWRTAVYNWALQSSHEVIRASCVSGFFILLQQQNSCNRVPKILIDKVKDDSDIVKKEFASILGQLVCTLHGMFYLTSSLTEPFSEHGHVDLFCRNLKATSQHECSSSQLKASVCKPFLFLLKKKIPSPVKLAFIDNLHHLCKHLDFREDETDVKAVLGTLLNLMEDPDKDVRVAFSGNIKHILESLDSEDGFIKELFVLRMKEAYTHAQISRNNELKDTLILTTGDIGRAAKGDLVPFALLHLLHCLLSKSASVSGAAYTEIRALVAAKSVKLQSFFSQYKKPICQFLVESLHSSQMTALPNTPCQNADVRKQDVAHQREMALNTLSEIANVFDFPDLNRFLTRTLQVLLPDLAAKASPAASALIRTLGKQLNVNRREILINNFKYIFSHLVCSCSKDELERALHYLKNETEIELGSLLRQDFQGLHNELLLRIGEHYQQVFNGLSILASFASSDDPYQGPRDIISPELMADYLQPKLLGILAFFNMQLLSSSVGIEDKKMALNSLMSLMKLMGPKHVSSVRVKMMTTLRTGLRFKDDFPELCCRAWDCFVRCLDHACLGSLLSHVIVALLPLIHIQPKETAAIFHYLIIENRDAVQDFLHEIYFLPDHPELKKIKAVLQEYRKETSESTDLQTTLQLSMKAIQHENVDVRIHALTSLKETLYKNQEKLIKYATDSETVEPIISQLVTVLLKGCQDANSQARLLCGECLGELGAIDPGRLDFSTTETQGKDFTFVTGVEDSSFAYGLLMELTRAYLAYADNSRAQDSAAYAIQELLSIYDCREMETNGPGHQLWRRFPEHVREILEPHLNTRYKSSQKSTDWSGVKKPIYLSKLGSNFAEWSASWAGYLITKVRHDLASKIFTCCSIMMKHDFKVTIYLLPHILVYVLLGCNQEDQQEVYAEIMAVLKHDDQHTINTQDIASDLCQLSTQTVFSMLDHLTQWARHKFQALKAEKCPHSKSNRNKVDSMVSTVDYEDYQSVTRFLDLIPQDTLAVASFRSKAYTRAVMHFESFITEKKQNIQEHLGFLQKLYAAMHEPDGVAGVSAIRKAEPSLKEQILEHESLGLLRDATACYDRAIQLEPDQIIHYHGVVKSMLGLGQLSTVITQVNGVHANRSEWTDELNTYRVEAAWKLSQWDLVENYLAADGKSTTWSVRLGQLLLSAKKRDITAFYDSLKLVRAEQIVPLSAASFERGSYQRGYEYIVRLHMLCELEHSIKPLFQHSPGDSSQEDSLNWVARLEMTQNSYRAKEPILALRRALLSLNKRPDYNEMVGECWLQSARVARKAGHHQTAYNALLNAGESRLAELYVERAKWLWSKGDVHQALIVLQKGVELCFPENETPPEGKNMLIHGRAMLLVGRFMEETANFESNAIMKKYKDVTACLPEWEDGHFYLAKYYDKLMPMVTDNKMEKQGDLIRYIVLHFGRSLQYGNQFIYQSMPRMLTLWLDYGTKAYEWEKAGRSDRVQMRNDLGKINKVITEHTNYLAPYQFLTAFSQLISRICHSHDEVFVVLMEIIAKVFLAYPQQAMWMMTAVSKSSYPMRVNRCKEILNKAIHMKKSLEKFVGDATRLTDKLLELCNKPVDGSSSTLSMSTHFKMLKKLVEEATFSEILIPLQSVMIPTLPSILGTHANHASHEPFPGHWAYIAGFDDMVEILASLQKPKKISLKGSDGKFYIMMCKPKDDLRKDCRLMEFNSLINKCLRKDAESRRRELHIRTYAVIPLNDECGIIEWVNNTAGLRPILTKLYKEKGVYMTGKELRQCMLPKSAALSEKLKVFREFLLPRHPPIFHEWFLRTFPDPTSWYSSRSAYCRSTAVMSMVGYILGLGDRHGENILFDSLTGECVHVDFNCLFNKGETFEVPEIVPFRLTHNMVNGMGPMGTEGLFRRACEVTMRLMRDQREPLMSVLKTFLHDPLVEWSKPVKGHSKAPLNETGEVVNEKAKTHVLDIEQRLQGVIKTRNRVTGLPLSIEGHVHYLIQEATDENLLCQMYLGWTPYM

[5] = Toxicity in BALB/c mouse assessed as mature red blood cells at 10 mg/kg, po qd for 3 days; type: organism-based; details: in vivo, 72 h, time 3 day
[6] = Toxicity in NOD-SCID mouse xenografted with human Granta-519 cells assessed as reduction in early stage erythroblasts in bone marrow at 10 mg/kg, po qd for 1 day co-administered with PARP inhibitor, niraparib by flow cytometry; type: organism-based; details: in vivo, 24 h

Structure (SMILES): C[C@@H]1COCCN1c1cc([C@]2(O)C[C@H]3CC[C@@H](C2)O3)c2cnn(-c3cc[nH]n3)c2n1 [CAMONSERTIB]
- microsomal CLint at 1 µM [1]: 97 µL/min/mg
- hepatocyte CLint at 1 µM [2]: 17 µL/min/1e6 cells
- inhibition [3]: Active
- IC50 [4]: 0.33 nM
- Activity [5]: Non-Toxic
- Activity [6]: Toxic
